Data: ChEMBL document CHEMBL5233211, “Progress in PD-1/PD-L1 pathway inhibitors: From biomacromolecules to small molecules” (Eur J Med Chem, 2020)
Numbered stars: 1 amine (or outer) side, 2 acyl side, 3 side chain; on linkers, the order of the positions; unused ones are H or OH. Bridge positions count the residues as written; N and C are the ends. Square brackets hold non-standard residues; d marks the D form. Peptide text beside a SMILES is read from it. ξ: configuration not given here. X1 = O=C(C(CO)NN[*:1])[*:2]; ξY = NC(Cc1ccc(O)cc1)C(=O)O; ξQ = NC(=O)CCC(N)C(=O)O; ξN = NC(=O)CC(N)C(=O)O

Tests used:
[1] = target: T1, Programmed cell death protein 1/Programmed cell death 1 ligand 1 (Homo sapiens, UniProt Q15116+Q9NZQ7); assay: Inhibition of recombinant human PD-1/PD-L1 interaction relative to control; type: protein-complex assay; details: concentration not given here
T1 sequence (Q15116 whole entry): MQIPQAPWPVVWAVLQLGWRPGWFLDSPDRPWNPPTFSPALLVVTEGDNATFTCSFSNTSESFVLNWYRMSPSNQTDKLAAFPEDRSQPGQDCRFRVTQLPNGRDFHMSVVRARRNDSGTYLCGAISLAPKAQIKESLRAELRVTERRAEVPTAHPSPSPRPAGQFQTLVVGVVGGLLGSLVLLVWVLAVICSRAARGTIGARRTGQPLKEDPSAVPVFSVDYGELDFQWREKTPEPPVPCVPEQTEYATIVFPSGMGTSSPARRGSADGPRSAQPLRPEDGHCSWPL
T1 sequence (Q9NZQ7 whole entry): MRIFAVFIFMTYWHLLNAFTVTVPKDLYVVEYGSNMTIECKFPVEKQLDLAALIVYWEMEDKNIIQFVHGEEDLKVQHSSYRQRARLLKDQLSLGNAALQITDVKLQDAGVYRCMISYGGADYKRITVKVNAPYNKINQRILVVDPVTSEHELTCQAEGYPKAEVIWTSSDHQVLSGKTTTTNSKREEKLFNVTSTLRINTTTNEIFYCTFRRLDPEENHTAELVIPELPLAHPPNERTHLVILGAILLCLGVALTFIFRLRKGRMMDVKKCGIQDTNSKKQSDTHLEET

[2] = target: T1, Programmed cell death protein 1/Programmed cell death 1 ligand 1; assay: Inhibition of human PD-1/PD-L1 interaction; type: protein-complex assay
[3] = Induction of mouse splenocytes proliferation at 100 nM; type: functional, Splenocyte
[4] = Binding affinity to human PD-1
CT26 = assay: Antitumor activity against mouse CT26 cells implanted in mouse at 3 mg/kg administered for 25 days; type: functional; details: time 25 day
[5] = target: Programmed cell death 1 ligand 1 (Mus musculus, UniProt Q9EP73); assay: Inhibition of PD-L1 in mouse splenocytes assessed as increase in INFgamma release; type: cell-based, Splenocyte
Programmed cell death 1 ligand 1 (Mus musculus, UniProt Q9EP73), sequence (Q9EP73 whole entry): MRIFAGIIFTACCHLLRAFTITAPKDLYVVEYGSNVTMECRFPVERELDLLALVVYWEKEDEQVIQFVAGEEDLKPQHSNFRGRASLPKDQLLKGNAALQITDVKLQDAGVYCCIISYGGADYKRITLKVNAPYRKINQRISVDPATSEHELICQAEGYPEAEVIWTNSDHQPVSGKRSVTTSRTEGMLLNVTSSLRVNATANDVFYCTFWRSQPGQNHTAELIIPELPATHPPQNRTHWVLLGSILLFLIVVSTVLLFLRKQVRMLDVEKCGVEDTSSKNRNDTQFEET

[6] = target: T1, Programmed cell death protein 1/Programmed cell death 1 ligand 1; assay: Inhibition of PD-1/PD-L1 interaction in human MDA-MB-231 cells assessed as increase in mouse splenocytes proliferation; type: cell-based; parameters: concentration or dose not given beside the values
[7] = target: Programmed cell death 1 ligand 1 (Homo sapiens, UniProt Q9NZQ7); assay: Inhibition of PD-L1 in human PBMCs assessed as increase in INFgamma production; type: cell-based, PBMC
Programmed cell death 1 ligand 1 (Homo sapiens, UniProt Q9NZQ7), sequence (Q9NZQ7 whole entry): as the sequence (Q9NZQ7 whole entry) above

[8] = target: T2, Programmed cell death 1 ligand 2 (Homo sapiens, UniProt Q9BQ51); assay: Inhibition of PD-L2 in human PBMCs assessed as increase in INFgamma production; type: cell-based, PBMC
T2 sequence (Q9BQ51 whole entry): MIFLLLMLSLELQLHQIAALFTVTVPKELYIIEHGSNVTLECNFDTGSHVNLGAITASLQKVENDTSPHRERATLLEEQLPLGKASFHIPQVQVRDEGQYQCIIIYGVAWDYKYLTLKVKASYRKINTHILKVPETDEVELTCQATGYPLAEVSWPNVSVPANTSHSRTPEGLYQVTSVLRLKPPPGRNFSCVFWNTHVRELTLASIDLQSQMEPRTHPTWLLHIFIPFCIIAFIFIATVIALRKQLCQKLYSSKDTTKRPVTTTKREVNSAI

[9] = Inhibition of VISTA/PD-1 interaction in human PBMCs assessed as increase in INFgamma production; type: cell-based; details: PBMC
[10] = target: T3, Programmed cell death 1 ligand 2 (Mus musculus, UniProt Q9WUL5); assay: Inhibition of PD-L2 in mouse splenocytes assessed as increase in INFgamma production; type: cell-based, Splenocyte
T3 sequence (Q9WUL5 whole entry): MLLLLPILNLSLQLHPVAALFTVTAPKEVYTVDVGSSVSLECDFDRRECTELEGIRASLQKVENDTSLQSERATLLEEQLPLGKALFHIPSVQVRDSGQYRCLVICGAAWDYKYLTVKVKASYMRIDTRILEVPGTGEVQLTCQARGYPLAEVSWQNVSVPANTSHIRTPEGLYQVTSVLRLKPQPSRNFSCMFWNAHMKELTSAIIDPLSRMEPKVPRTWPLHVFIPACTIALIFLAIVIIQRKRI

## CNCCOc1cccc(OC(=O)N(C)C)c1
[1]
  inhibition: 18.5%

## CC[C@H](C)[C@@H]1NC(=O)[C@H](CC(C)C)NC(=O)[C@H](Cc2ccccc2)NC(=O)CSC[C@@H](C(=O)NCC(N)=O)NC(=O)[C@H](CCCNC(=N)N)NC(=O)[C@H](Cc2ccccc2)NC(=O)[C@H](C(C)C)NC(=O)[C@H](CCCNC(=N)N)NC(=O)[C@H](CC(=O)O)NC(=O)[C@H](CCCNC(=N)N)NC(=O)[C@H]([C@@H](C)CC)NC(=O)[C@H](C(C)C)NC1=O ({CH2CO}-FLIVIRDRVFRCG-NH2; thioether N-12)
[2]
  EC50: 0.72 nM

## N[C@@H](Cc1ccc(O)cc1)c1noc([C@@H]2CCCN2C(=O)N[C@@H](Cc2ccc(O)cc2)C(=O)O)n1
[3]
  Activity: 91%

## Cc1c(Nc2nccc3cc(CN4CC[C@@H](O)C4)cnc23)cccc1-c1cccc(-c2nc3cc(CN[C@H]4CC[C@@H](C(=O)O)C4)cc(C#N)c3o2)c1C
[2]
  IC50: < 10 nM

## H-FNWDYSWKSERLKEAYDL-OH
[4]
  Kd: 339000 nM

## C[C@H](O)[C@H](NC(=O)N[C@@H](CC(N)=O)C(=O)NNC(=O)[C@@H](N)CO)C(=O)O
CT26
  Activity: 46%
[5]
  EC50: 30 nM

## C[C@@H](O)[C@@H]1NC(=O)[C@H](CC(N)=O)NC(=O)C(CO)NNC(=O)C(CCC(N)=O)NC(=O)[C@H](Cc2ccccc2)NC(=O)[C@H](CO)NC(=O)[C@H](CCC(=O)O)NC(=O)[C@H](CO)NC1=O (stereo partly specified) (cyclo(ESF[ξQ][X1]NTS))
[6]
  Activity: 76%

## CC[C@H](C)[C@H](NC1CCC(=O)NCCCCC(C(=O)N[C@@H](CO)C(=O)NC(CCC(N)=O)C(=O)O)NC(=O)[C@H](CO)NC(=O)[C@H](CCSC)NC1=O)C(=O)O (stereo partly specified)
[6]
  Activity: 76%

## Cc1c(-c2ccc3c(c2)OCCO3)cccc1-c1nc2cc(CNCCO)cc(C)c2o1
[2]
  IC50: < 10 nM

## H-LDYVNRRKMYQ-OH
[4]
  Kd: 3320 nM

## C[C@@H](O)[C@H](NC(=O)[C@H](CO)NC(CCC(=O)NCCCCNC(=O)C(Cc1ccccc1)NC(=O)C(N)CO)C(N)=O)C(=O)N[C@@H](CC(N)=O)C(=O)N[C@@H](CO)C(=O)O (stereo partly specified)
[6]
  Activity: 87%

## Cc1c(-c2nc3cc(CN4CC[C@@](C)(C(=O)O)C4)cc(C#N)c3o2)cccc1-c1cccc(-c2nc3c(s2)CN(C(=O)CN(C)C(C)C)C3)c1C
[2]
  IC50: < 10 nM

## Cc1c(Nc2nccc3cc(CN[C@H](C)CO)cnc23)cccc1-c1cccc(-c2nc3cc(CN4CCC(C(=O)O)CC4)cc(C#N)c3o2)c1C
[2]
  IC50: < 10 nM

## Cc1c(-c2ccc3c(c2)OCCO3)cccc1-c1nc2cc(CNCCO)c(OCC#N)cc2o1
[2]
  IC50: < 10 nM

## C[C@@H](O)[C@H](N)c1noc([C@H](Cc2ccc(O)cc2)NC(=O)N2CCC[C@H]2C(=O)O)n1
[3]
  Activity: 99%

## H-LDYGDKREGQMAE-OH
[4]
  Kd: 21600 nM

## CC(O)[C@H](NC(=O)N[C@@H](CCC(N)=O)c1nnc([C@@H](N)C(C)O)o1)C(=O)O (stereo partly specified)
[3]
  Activity: 97%

## C[C@@H](O)[C@@H]1NC(=O)C(N[C@@H](CO)C(=O)O)CCCCNC(=O)CCC(C(=O)N[C@@H](CO)C(=O)N[C@@H](Cc2ccccc2)C(N)=O)NC(=O)[C@H](CO)NC1=O (stereo partly specified)
[6]
  Activity: 84%

## N[C@@H](Cc1c[nH]c2ccccc12)C(=O)N[C@@H](CC(=O)O)C(=O)N[C@@H](Cc1ccc(O)cc1)C(=O)N[C@@H](CC(=O)O)C(=O)O (H-WDYD-OH)
[4]
  Kd: 22400 nM

## C[C@H](O)[C@@H](N)C(=O)NNC(=O)[C@@H](CC(N)=O)NC(=O)N[C@H](CO)C(=O)O
[5]
  EC50: 40 nM

## Cc1c(-c2ccccc2)cccc1-c1nc2cc(CNCCO)ccc2o1
[2]
  IC50: < 10 nM

## CC(C)C[C@H](NC(=O)[C@H](CCC(N)=O)NC(=O)[C@H](C)NC(=O)[C@H](CCCNC(=N)N)NC(=O)[C@H](CCC(N)=O)NC(=O)[C@H](CO)NC(=O)[C@H](CC(N)=O)NC(=O)[C@H](Cc1ccc(O)cc1)NC(=O)[C@H](CC(=O)O)NC(=O)[C@H](Cc1c[nH]c2ccccc12)NC(=O)C(CC(N)=O)NC(=O)CN)C(=O)N[C@@H](Cc1ccc(O)cc1)C(=O)N[C@@H](CC(N)=O)C(=O)N[C@@H](CCC(N)=O)C(=O)O (stereo partly specified) (H-G[ξN]WDYNSQRAQLYNQ-OH)
[4]
  Kd: 1380 nM

## CC[C@H](C)[C@H](NC1CCC(=O)NCCCCC(C(=O)N[C@@H](CO)C(=O)N[C@@H](Cc2ccccc2)C(N)=O)NC(=O)[C@H](CO)NC(=O)[C@H]([C@@H](C)O)NC1=O)C(=O)O (stereo partly specified)
[6]
  Activity: 76%

## C[C@H](O)[C@H](NC(=O)N[C@@H](Cc1ccccc1)c1nc([C@@H](N)CO)no1)C(=O)O
[3]
  Activity: 92%

## H-FNWDYSLEELREKAKYK-OH
[4]
  Kd: 3140 nM

## C[C@@H](O)[C@H](N)C(=O)NNC(=O)[C@H](CC(N)=O)NC(=O)N[C@@H](CO)C(=O)O
[5]
  EC50: 27 nM

## Cc1c(-c2nc3c(o2)CN(C(=O)CN2CCC(O)CC2)C3)cccc1-c1cccc(-c2nc3cc(CN4CC[C@@](C)(C(=O)O)C4)cc(C#N)c3o2)c1C
[2]
  IC50: < 10 nM

## CCCCN(CCCC)CCOc1cccc(OC(=O)N(C)C)c1
[1]
  inhibition: 41.9%

## H-GIDYEERWK-OH
[4]
  Kd: 28300 nM

## Cc1c(-c2ccccc2)cccc1-c1nc2cc(CNCCO)c(OCCN3CCOCC3)cc2o1
[2]
  IC50: < 10 nM

## CC(O)[C@H](NC(=O)N[C@@H](CC(N)=O)c1nnc([C@@H](N)CO)s1)C(=O)O (stereo partly specified)
[5]
  EC50: 33.8 nM
[7]
  EC50: 56.4 nM
[8]
  EC50: 149 nM
[9]
  EC50: 49.4 nM
[10]
  EC50: 55 nM

## COc1cc(NS(=O)(=O)c2ccc(N)cc2)ncn1
[1]
  inhibition: 10.2%

## C[C@@H](O)[C@@H]1NC(=O)C(N[C@@H](CO)C(=O)O)CCC(=O)NCCCCC(C(=O)N[C@@H](CO)C(=O)N[C@@H](Cc2ccccc2)C(N)=O)NC(=O)[C@H](CO)NC1=O (stereo partly specified)
[6]
  Activity: 78%

## CC[C@H](C)[C@H](NC(=O)[C@H](CC(N)=O)NC(=O)CNC(=O)[C@H](Cc1cnc[nH]1)NC(=O)[C@H](CCCNC(=N)N)NC(=O)C(Cc1ccc(O)cc1)NC(=O)[C@H](CC(=O)O)NC(=O)[C@H](CCCCN)NC(=O)[C@H](CCC(=O)O)NC(=O)[C@@H](N)[C@@H](C)O)C(=O)N[C@@H](CCCNC(=N)N)C(=O)N[C@@H](CCSC)C(=O)N[C@@H](CCCCN)C(=O)N[C@@H](CC(C)C)C(=O)N[C@@H](C)C(=O)N[C@@H](Cc1ccc(O)cc1)C(=O)N[C@@H](CC(=O)O)C(=O)N[C@@H](CC(C)C)C(=O)O (stereo partly specified) (H-TEKD[ξY]RHGNIRMKLAYDL-OH)
[4]
  Kd: 3130 nM

## CCN(Cc1ccccc1)C(=O)N[C@@H](CC(N)=O)c1nc([C@@H](N)CO)no1
[3]
  Activity: 92%

## Cc1nnc(NS(=O)(=O)c2ccc(N)cc2)s1
[1]
  inhibition: 29.3%
